PubChem BioAssay (NCI)
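Compound exposure: 48 hours, 5 concentrations, 96-well plates. At the TGI there is no net growth.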

What was measured:
Test in all cases: inhibition of tumour cell growth, NCI panel, 48 h
786-0 renal = system: 786-0 renal
A498 renal = system: A498 renal
A549 NSCLC = system: A549 NSCLC
ACHN renal = system: ACHN renal
CAKI-1 renal = system: CAKI-1 renal
CCRF-CEM leukemia = system: CCRF-CEM leukemia
COLO 205 colon = system: COLO 205 colon
DLD-1 colon = system: DLD-1 colon
DMS 114 small cell lung = system: DMS 114 small cell lung
DMS 273 small cell lung = system: DMS 273 small cell lung
EKVX NSCLC = system: EKVX NSCLC
HCC-2998 colon = system: HCC-2998 colon
HCT-116 colon = system: HCT-116 colon
HCT-15 colon = system: HCT-15 colon
HOP-18 NSCLC = system: HOP-18 NSCLC
HOP-62 NSCLC = system: HOP-62 NSCLC
HT29 colon = system: HT29 colon
IGROV1 ovarian = system: IGROV1 ovarian
K-562 leukemia = system: K-562 leukemia
KM12 colon = system: KM12 colon
KM20L2 colon = system: KM20L2 colon
LOX IMVI melanoma = system: LOX IMVI melanoma
LXFL 529 NSCLC = system: LXFL 529 NSCLC
M14 melanoma = system: M14 melanoma
M19-MEL melanoma = system: M19-MEL melanoma
MALME-3M melanoma = system: MALME-3M melanoma
MOLT-4 leukemia = system: MOLT-4 leukemia
NCI-H226 lung = system: NCI-H226 lung
NCI-H23 lung = system: NCI-H23 lung
NCI-H460 lung = system: NCI-H460 lung
NCI-H522 lung = system: NCI-H522 lung
OVCAR-3 ovarian = system: OVCAR-3 ovarian
OVCAR-4 ovarian = system: OVCAR-4 ovarian
OVCAR-5 ovarian = system: OVCAR-5 ovarian
OVCAR-8 ovarian = system: OVCAR-8 ovarian
RPMI-8226 leukemia = system: RPMI-8226 leukemia
RXF 393 renal = system: RXF 393 renal
RXF-631 renal = system: RXF-631 renal
SF-268 CNS = system: SF-268 CNS
SF-295 CNS = system: SF-295 CNS
SF-539 CNS = system: SF-539 CNS
SK-MEL-2 melanoma = system: SK-MEL-2 melanoma
SK-MEL-28 melanoma = system: SK-MEL-28 melanoma
SK-MEL-5 melanoma = system: SK-MEL-5 melanoma
SK-OV-3 ovarian = system: SK-OV-3 ovarian
SN12C renal = system: SN12C renal
SNB-19 CNS = system: SNB-19 CNS
SNB-75 CNS = system: SNB-75 CNS
SNB-78 CNS = system: SNB-78 CNS
SR leukemia = system: SR leukemia
SW-620 colon = system: SW-620 colon
TK-10 renal = system: TK-10 renal
U251 CNS = system: U251 CNS
UACC-257 melanoma = system: UACC-257 melanoma
UACC-62 melanoma = system: UACC-62 melanoma
UO-31 renal = system: UO-31 renal

Measured: TGI

CN1C(=O)N(C)C2(O)c3ccccc3C(=O)C12O (stereo unspecified)
> 100 µM: all assays above
